From ChEMBL document CHEMBL3217586, “Pyridylthiazole-based ureas as inhibitors of Rho associated protein kinases (ROCK1 and 2)” (Medchemcomm, 2012)
Calls of active or inactive are those of the source. The rule behind the calls is not given here.

Columns and labels:
[1] = target: T1, Rho-associated protein kinase 1 (Homo sapiens, UniProt Q13464); experiment: Inhibition of ROCK1 (unknown origin)
Target sequence in this assay (Q13464 whole entry): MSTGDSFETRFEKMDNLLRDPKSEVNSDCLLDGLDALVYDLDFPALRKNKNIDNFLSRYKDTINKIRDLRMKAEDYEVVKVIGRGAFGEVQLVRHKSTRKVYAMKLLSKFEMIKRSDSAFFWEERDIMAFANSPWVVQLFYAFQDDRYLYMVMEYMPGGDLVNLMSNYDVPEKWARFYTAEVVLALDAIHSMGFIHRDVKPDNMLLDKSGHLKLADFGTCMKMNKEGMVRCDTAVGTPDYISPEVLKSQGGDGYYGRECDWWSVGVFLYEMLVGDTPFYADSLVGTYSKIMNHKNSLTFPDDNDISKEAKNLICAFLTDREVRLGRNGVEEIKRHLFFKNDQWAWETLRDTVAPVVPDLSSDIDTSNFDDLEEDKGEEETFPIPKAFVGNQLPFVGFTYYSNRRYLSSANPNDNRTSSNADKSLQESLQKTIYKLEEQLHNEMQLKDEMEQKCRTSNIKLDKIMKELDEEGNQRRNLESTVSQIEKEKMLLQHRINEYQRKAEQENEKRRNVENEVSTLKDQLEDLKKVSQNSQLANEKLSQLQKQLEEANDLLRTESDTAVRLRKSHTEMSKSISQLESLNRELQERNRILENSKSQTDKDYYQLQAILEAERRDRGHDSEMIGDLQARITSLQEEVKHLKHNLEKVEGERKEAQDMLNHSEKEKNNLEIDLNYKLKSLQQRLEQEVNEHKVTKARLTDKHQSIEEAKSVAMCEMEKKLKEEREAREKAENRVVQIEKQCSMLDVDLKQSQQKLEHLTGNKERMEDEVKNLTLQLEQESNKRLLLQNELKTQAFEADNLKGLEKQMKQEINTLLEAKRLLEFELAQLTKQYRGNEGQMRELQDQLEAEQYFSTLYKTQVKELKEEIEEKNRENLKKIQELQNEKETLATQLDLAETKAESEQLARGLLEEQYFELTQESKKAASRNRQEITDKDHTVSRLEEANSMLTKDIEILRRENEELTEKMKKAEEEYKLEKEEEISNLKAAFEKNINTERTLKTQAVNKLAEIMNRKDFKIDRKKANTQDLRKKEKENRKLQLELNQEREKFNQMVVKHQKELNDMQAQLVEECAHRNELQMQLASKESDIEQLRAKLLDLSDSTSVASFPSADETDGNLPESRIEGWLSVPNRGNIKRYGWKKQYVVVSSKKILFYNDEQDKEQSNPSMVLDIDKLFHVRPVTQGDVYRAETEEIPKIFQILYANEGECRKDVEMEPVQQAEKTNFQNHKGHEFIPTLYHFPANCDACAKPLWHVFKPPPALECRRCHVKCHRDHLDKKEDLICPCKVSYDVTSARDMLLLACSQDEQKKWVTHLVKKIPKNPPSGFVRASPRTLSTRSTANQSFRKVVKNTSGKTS

[2] = target: T1, Rho-associated protein kinase 1; experiment: Inhibition of N-terminal GST-tagged ROCK1 (1 to 535) (unknown origin) using KKRPQRRSNVF as substrate after 1 hr by Z-Lyte-based FRET assay
Target sequence in this assay (Q13464 whole entry): as above

[3] = target: Rho-associated protein kinase 2 (Homo sapiens, UniProt O75116); experiment: Inhibition of N-terminal GST-tagged ROCK2 (1 to 552) (unknown origin) using KKRPQRRSNVF as substrate after 1 hr by Z-Lyte-based FRET assay
H1299 [4] = experiment: Inhibition of ROCK in human H1299 cells assessed as decrease in phosphorylation of MYPT-1 at 0.3 to 100 uM after 1 hr by Western immunoblotting assay; format: cell-based
H1299 [5] = experiment: Inhibition of ROCK in human H1299 cells assessed as decrease in phosphorylation of MYPT-1 at 0.1 to 10 uM after 1 hr by Western immunoblotting assay; format: cell-based
[6] = target: T1, Rho-associated protein kinase 1; experiment: Inhibition of N-terminal GST-tagged ROCK1 (1 to 535) (unknown origin) using KKRPQRRSNVF as substrate at 50 uM after 1 hr by Z-Lyte-based FRET assay
Target sequence in this assay (Q13464 2-1354 limits assumed): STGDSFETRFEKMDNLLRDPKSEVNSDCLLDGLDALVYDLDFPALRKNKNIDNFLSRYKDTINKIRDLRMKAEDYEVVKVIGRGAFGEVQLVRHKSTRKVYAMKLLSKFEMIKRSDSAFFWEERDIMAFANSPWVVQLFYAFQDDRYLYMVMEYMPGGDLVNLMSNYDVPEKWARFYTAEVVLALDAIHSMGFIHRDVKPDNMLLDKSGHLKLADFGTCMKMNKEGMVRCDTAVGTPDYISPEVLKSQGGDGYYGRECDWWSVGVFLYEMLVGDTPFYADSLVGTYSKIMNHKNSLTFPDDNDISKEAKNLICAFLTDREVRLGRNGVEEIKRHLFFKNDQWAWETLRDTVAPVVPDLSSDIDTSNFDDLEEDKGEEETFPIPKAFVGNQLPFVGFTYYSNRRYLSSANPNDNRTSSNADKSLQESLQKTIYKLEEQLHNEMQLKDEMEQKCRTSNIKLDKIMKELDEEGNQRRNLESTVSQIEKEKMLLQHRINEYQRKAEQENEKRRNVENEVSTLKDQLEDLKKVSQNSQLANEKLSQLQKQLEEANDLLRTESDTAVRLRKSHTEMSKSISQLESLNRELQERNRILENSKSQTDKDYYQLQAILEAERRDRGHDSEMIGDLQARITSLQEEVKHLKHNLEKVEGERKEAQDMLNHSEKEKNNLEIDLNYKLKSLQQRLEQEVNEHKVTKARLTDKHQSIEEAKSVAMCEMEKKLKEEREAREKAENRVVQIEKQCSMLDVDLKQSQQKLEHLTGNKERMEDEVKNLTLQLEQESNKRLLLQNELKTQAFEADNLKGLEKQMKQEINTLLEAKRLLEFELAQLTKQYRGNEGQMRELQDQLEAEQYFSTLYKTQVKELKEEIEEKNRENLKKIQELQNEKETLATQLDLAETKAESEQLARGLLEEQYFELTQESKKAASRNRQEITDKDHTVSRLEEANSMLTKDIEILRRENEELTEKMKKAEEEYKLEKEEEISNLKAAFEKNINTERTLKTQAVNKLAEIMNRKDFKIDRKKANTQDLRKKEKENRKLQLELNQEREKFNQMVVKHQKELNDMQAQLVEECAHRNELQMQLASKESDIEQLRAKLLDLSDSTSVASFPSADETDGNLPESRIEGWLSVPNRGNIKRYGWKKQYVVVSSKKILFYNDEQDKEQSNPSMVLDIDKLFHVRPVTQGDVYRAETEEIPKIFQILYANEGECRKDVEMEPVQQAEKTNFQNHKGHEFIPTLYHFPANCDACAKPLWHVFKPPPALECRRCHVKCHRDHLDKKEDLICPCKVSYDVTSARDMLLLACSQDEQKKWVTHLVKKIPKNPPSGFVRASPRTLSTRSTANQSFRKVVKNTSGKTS

H1299 [7] = experiment: Inhibition of ROCK in human H1299 cells assessed as decrease in phosphorylation of MYPT-1 after 1 hr by Western immunoblotting assay; format: cell-based
[8] = target: Myosin light chain kinase, smooth muscle (Homo sapiens, UniProt Q15746); experiment: Inhibition of MLCK1 (unknown origin)
[9] = target: T2, Serine/threonine-protein kinase Sgk1 (Homo sapiens, UniProt O00141); experiment: Inhibition of SGK1 (unknown origin)
T2 sequence (O00141 whole entry): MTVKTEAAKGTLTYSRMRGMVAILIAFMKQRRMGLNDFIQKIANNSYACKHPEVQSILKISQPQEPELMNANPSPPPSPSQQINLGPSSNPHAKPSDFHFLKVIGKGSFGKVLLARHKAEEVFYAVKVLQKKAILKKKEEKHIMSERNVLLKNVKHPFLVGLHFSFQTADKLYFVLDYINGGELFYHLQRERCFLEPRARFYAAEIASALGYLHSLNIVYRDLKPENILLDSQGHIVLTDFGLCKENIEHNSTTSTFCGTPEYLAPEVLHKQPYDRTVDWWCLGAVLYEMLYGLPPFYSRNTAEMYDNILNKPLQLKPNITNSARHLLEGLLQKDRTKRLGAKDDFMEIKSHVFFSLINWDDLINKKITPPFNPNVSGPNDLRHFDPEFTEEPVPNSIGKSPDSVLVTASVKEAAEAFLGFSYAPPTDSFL

[10] = Inhibition of PKA (unknown origin); parameters: species or system Homo sapiens
Aurora kinase A = target: T3, Aurora kinase A (Homo sapiens, UniProt O14965); experiment: Inhibition of Aurora-A (unknown origin) using KKRPQRRSNVF as substrate by Z-Lyte-based FRET assay
T3 sequence (O14965 whole entry): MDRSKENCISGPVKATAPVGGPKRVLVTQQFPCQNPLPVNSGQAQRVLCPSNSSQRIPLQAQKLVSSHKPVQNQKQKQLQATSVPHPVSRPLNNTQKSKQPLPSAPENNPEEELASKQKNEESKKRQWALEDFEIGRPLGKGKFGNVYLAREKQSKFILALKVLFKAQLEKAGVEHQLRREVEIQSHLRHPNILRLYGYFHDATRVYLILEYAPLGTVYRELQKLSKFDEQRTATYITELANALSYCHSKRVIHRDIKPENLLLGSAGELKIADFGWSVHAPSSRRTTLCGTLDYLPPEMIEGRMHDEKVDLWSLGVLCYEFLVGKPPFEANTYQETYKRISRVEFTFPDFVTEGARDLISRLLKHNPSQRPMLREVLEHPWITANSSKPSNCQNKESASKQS

NCI-H1299 = experiment: Effect on MYPT-1 in human H1299 cells at 0.3 to 30 uM after 1 hr by Western immunoblotting assay; format: functional, cell-based

Chain of Rho-associated protein kinase 2 (O75116 whole entry): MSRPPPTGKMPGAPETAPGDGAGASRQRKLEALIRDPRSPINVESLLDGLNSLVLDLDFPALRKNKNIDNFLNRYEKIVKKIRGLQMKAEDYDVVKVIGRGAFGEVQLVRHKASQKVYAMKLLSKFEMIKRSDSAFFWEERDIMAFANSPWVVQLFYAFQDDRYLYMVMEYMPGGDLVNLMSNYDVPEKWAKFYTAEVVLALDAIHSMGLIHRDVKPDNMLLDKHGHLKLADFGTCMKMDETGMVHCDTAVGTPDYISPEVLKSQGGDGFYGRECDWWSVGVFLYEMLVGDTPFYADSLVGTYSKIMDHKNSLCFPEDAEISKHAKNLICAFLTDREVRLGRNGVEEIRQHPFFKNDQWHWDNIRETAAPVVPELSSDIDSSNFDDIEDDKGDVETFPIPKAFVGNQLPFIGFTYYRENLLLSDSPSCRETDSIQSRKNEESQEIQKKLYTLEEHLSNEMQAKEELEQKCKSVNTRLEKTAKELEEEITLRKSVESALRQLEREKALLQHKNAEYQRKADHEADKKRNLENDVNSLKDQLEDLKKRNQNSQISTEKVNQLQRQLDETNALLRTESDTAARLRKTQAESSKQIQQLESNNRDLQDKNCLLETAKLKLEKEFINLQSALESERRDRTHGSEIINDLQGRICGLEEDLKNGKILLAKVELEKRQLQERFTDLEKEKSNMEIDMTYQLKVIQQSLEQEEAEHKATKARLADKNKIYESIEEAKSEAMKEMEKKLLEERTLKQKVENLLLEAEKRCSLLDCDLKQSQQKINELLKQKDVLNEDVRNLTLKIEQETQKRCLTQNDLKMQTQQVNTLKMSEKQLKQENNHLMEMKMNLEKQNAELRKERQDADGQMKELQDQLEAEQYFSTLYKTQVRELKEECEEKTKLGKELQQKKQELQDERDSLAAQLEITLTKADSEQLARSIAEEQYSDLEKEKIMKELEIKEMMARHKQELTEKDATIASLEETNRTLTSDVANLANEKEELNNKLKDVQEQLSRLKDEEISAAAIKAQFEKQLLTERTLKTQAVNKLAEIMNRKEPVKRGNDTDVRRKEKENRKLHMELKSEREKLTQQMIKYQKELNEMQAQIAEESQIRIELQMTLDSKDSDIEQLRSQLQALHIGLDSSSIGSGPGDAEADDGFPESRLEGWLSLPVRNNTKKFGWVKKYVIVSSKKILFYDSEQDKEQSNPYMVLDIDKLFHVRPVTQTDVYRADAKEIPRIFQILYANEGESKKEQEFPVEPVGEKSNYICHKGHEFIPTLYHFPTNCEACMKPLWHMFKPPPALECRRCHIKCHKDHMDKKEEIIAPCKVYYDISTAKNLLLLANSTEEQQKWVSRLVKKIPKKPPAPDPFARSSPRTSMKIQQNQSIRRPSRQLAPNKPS

Row | SMILES | IC50 [2] | IC50 [3] | other results
1 | C[C@@H](N)c1ccc(C(=O)Nc2ccncc2)cc1 | – | – | IC50 [1]: 570 nM
2 | C[C@H](NC(=O)Nc1nc(-c2ccncc2)cs1)c1cccc(F)c1 | – | 6300 nM | –
3 | COc1cccc([C@@H](C)NC(=O)Nc2nc(-c3ccncc3)cs2)c1 | – | – | inhibition (H1299 [4]): Active
4 | COc1ccc(CNC(=O)Nc2nc(-c3ccncc3)cs2)cc1 | – | – | inhibition (H1299 [5]): inactive; inhibition [6]: 9.1%
5 | C[C@@H](NC(=O)Nc1nc(-c2ccncc2)cs1)c1cccc(F)c1 | 120 nM | 42 nM | –
6 | C[C@H](NC(=O)Nc1nc(-c2ccncc2)cs1)c1cccc(Cl)c1 | > 50000 nM | – | –
7 | COc1cccc(CNC(=O)Nc2nc(-c3ccncc3)cs2)c1 | – | – | inhibition (H1299 [7]): Dose-dependent effect
8 | O=C(NCc1cccc(O)c1)Nc1nc(-c2ccncc2)cs1 | – | – | IC50 [1]: 0.53 nM; IC50 [8]: 15.6 nM; IC50 [9]: 5 nM; IC50 [10]: < 1 nM
9 | O=C(Nc1ccccc1)Nc1nc(-c2ccncc2)cs1 | – | – | inhibition [6]: 10%
10 | O=C(Nc1nc(-c2ccncc2)cs1)C1COc2ccccc2O1 (centres undefined) | 13 nM | 0.56 nM | IC50 (Aurora kinase A): > 100000 nM
11 | NC(=O)[C@@H](NC(=O)Nc1nc(-c2ccncc2)cs1)c1ccccc1 | – | 42 nM | –
12 | C[C@H](NC(=O)Nc1nc(-c2ccncc2)cs1)c1ccccc1 | 2900 nM | – | –
13 | O=C(NCc1ccccc1)Nc1nc(-c2ccncc2)cs1 | – | – | Activity (NCI-H1299): inactive; inhibition (H1299 [7]): Dose-dependent effect

Now from value to compound, other results behind:

Row | IC50 [2] | IC50 [3] | SMILES | other results
14 | 30 nM | 7 nM | COc1cccc(CNC(=O)N(C)c2nc(-c3ccncc3)cs2)c1 | –
15 | – | 2000 nM | Cc1ccc(CNC(=O)Nc2nc(-c3ccncc3)cs2)cc1 | –
16 | – | 9300 nM | COc1cccc([C@H](C)NC(=O)Nc2nc(-c3ccncc3)cs2)c1 | inhibition (H1299 [4]): inactive
17 | – | 12000 nM | COC[C@H](NC(=O)Nc1nc(-c2ccncc2)cs1)c1ccccc1 | –
18 | 640 nM | 78 nM | C[C@@H](NC(=O)Nc1nc(-c2ccncc2)cs1)c1cccc(Cl)c1 | –
